ChEMBL document CHEMBL3507680, “University of Dundee, Gates Library screen for HepG2 cell viability”

Test: Human HepG2 cell viability assay in 384 well format
Type: toxicity, cell-based
Set-up: dose 125 nL, time 70.5 hour; cytotoxicity at 70.5 h: concentration not given beside the values
Conditions: HepG2 cells, read-out: Inhibition

Structure (SMILES)	cytotoxicity at 70.5 h [%]
CSc1ccc(S(=O)(=O)N2CCCCC2CCNC(C)=O)cc1 (stereo unspecified)	-9.19
CC(C)NC(=O)N1CCC2(CC1)[C@@H]1CN(C(=O)N(C)C)C[C@@H]1C(=O)N2C	-7.71
COc1nn(C)cc1C(=O)NCC(=O)NCc1ccccn1	-11
COC1CCN(S(=O)(=O)N2CCCC(c3cccc(C(=O)O)c3)C2)CC1 (stereo unspecified)	-9.91
CC(C)N1CCCn2c(nc(CNC(=O)c3nccn3C)cc2=O)C1	-17.1
CCc1c(C)nc2n(c1=O)CC(C(=O)Nc1ccccc1F)CS2 (stereo unspecified)	20.5
COCCCN(Cc1cnc(-c2ccccn2)nc1)C1CCN(C)CC1	-22.2
CC1CN(c2ccc(CNC(=O)NCCn3ccnc3)cn2)CCO1 (stereo unspecified)	-16.7
COCCO[C@H]1CCN(Cc2cnn(C)c2)[C@H]1Cc1cccnc1	-3.42
CN(C)C(=O)NCc1cc2n(n1)CCCN(C[C@H]1[C@@H]3CNC[C@@H]31)C2	-0.846
CCC(=O)N1CCCC1C(=O)N1CCC(Cc2ccc(F)cc2)CC1 (stereo unspecified)	-9.21
O=C(CNCCn1cccn1)NCC1(c2ccccc2)CCOCC1	-7.33
CCOC(=O)c1sc(NC(=O)CCCC(=O)O)c(C#N)c1C	-4.89
CCc1nc(CCn2cc(-c3nccn3C)nn2)no1	-9.68
Cc1nc(C2CCCN(C(=O)CCCn3ccnc3C)C2)no1 (stereo unspecified)	-11.8
COC[C@H](C)Nc1cc(C)c2ccc(SC)cc2n1	-8
Cc1nc[nH]c1CN1CCC2(CC1)CC(Nc1ncccn1)CO2 (stereo unspecified)	-94.8
Cc1c(NC(=O)N(C)CCn2cnnc2)cccc1OC1CCCC1	-4.56
CCc1cc(CNC(=O)C2CCCN(C(=O)NCC(C)C)C2)[nH]n1 (stereo unspecified)	-11.9
c1coc(CN2CCn3c(COCC4CC4)nnc3C2)c1	0.787
CCC[C@H]1CN(Cc2ccc(N(C)C)nc2)C[C@@H]1NC(=O)CCOC	-10.3
CCN1CCC(NC(=O)CN2CCCC2Cn2nc(C)cc2C)CC1 (stereo unspecified)	-9.53
Cc1cccc(CN2C[C@@H]3OCCN(c4ccnc(N(C)C)n4)[C@@H]3C2)c1	10

Structure (SMILES)	cytotoxicity at 70.5 h [%]
Cc1nc(N2CCCC2)nc2c1CCN(C(=O)C1CCCC1)CC2	-9.52
CCn1cc(CN2C[C@@H]3CCCN3C[C@H]2CCSC)cn1	-7.68
CCc1nc(C)cc(NC(C)C(=O)Nc2cc(F)ccc2C)n1 (stereo unspecified)	-15.5
Cc1ccc(C(=O)NC2CCN(C(=O)NCc3ccccn3)CC2)o1	-8.93
COc1ccc(CN2CCC3(CC2)CCN(CC2CC2)C3=O)cc1	-14.4
CC(NC(=O)N(C)Cc1ccsc1)c1ccc2c(c1)NC(=O)CO2 (stereo unspecified)	-9.52
CC(C)OCCCNC(=O)CN1CCC(N2CCN(C)C2=O)CC1	-18.5
CC(=O)c1c(C)cc(C)c(Cn2ccnc2S(C)(=O)=O)c1C	6.42
CCC1(CC)CC(=O)N(CC(O)c2ccc(F)cc2)C1=O (stereo unspecified)	-9.84
Cn1cnnc1SCC(=O)NC1CC(=O)N(CCc2cccc(Cl)c2)C1 (stereo unspecified)	-7.55
Cc1cc(C2CCCN2C(=O)COc2ccc(CC#N)cc2)no1 (stereo unspecified)	-7.35
COc1ccc(C(O)CNC(=O)Cn2ccc(=O)n(C)c2=O)cc1 (stereo unspecified)	-5.99
CC(C)c1csc(C2CCCN(C(=O)c3ncccn3)C2)n1 (stereo unspecified)	13
CN1C(=O)CO[C@H](c2ccc(NC(=O)NC(C)(C)C)cc2)[C@H]1CO	-0.339
Cc1ccsc1S(=O)(=O)N1CCc2c(c(C(=O)O)nn2CC2CC2)C1	-7.3
Cc1nnc(N2CC[C@H]3C[C@H](C(=O)N(C)C)O[C@@H]3C2)s1	-7.89
CNC(=O)c1ccc(NC(=O)NC(C)c2cc(C)oc2C)cc1 (stereo unspecified)	-8.2
OC(COc1ccc(F)cc1)CN1CCC(Cn2cccn2)CC1 (stereo unspecified)	10.3
CC(Cn1cc(Br)cn1)C(=O)Nc1ccc(Cl)cn1 (stereo unspecified)	4.53
CC1c2ncc(Cn3cncn3)n2CCN1C(=O)Cc1cccs1 (stereo unspecified)	-6.55
Cc1ccc(N2C[C@@H]3OCCN(CC4CC4)[C@@H]3C2)nn1	-7.81
Cc1cncc(C2CCN(C(=O)CCc3ccnn3C)CC2)n1	23.6
CC(CNC(=O)c1ccc(Cl)cc1I)N1CCCC1 (stereo unspecified)	-8.19

Structure (SMILES)	cytotoxicity at 70.5 h [%]
CN(C)c1ccc(-c2cc(C(=O)O)cc(S(=O)(=O)NC3CC3)c2)cc1	-12.9
Cc1noc(C)c1CN1CCN(Cc2nccn2C)CC1	-4.67
C=C(C)CNC(=O)C1CCCN(C2CCN(C(C)C)CC2)C1 (stereo unspecified)	-2.47
Cc1cc(OCc2ccc(C(=O)O)s2)ccc1Cl	-0.232
CN1CCC2(CC1)CN(C)C(=O)C[C@@H]2C(F)(F)F	-2.18
CN1[C@H](CN2CCCC2)C[C@@H]2CN(Cc3ccoc3)CC[C@@H]21	4.1
CN(C)CC1CN(c2ncnc3[nH]ccc23)CCO1 (stereo unspecified)	5.61
O=C(NC1CC1)c1ccnc(N2CCOC(c3ccc(Cl)cc3)C2)c1 (stereo unspecified)	7.4
CC(C)(C)S(=O)(=O)CCNC(=O)c1cnc(-c2ccccc2)nc1	-0.525
O=C(c1ccccn1)N1C[C@@H]2CC[C@H](C1)N(C(=O)Cc1cccs1)C2	-10
Cc1ncsc1C(=O)NC1CCN(CC(=O)NCc2ccccc2)CC1	2.21
Cc1ccc(C(=O)N2C[C@@H]3CCCO[C@@H]3[C@H](N3CCOCC3)C2)cn1	2.11
CCN(C(=O)c1ccc(-c2ccccc2)nc1C)C1CC(=O)NC1=O (stereo unspecified)	-5.68
COc1ccccc1N1CCN(C(=O)CCCS(N)(=O)=O)C(C)C1 (stereo unspecified)	-5.3
CC(=O)N1CC(C)CN(C(=O)c2cscn2)c2ccccc21 (stereo unspecified)	2.08
Cc1nn(CC(C)C)c(N(C)C)c1CNCCC(=O)NC(C)C	23
O=C(CC1CC1)N[C@@H]1CN(c2ncccn2)C[C@@H]2CCCO[C@@H]21	-7.21
O=c1[nH]nc(CNc2ncc(Cl)cn2)[nH]1	28.8
Cc1ccc(C(=O)N2C[C@H]3CCC[C@@]3(COCc3ccncc3)C2)cn1	-7.42
CC1CCCN(c2ccccc2OCC(=O)N2CCOCC2)C1 (stereo unspecified)	17.5
Fc1cccc2[nH]c(CN3CCc4cncnc4C3)nc12	-7.7
Cc1cc(C)n(CC2CCN(CC(O)CN3CCOCC3)CC2)n1 (stereo unspecified)	-2.43
COCCN1CCCC(c2nccnc2-c2cccc(Cl)c2)C1 (stereo unspecified)	21

Structure (SMILES)	cytotoxicity at 70.5 h [%]
Cc1nocc1C(=O)N1CCCC2(CCN(c3ccsc3)C2=O)C1 (stereo unspecified)	-6.39
O=C1CCCCCN1Cc1ncnn1Cc1c(F)cccc1Cl	-5.62
C=C(C)CN(CC)C(=O)Nc1ccccc1CN(C)C(C)=O	-12.6
CC(CS(C)(=O)=O)N(C(=O)CCc1cccc(F)c1)C1CC1 (stereo unspecified)	12.6
CCc1nc(CN(C)C2CCN(CCn3cccn3)C2)no1 (stereo unspecified)	-15.3
Cc1nc(C2(O)CCCNCC2)sc1CCOc1ccc(Cl)cc1 (stereo unspecified)	31.6
COc1ccccc1C(=O)NCCC(=O)Nc1c(C)nn(C)c1C	-12.6
CCc1cn[nH]c1C1CCCN(C(=O)c2ncoc2C(C)C)C1 (stereo unspecified)	-2.87
Cc1n[nH]c(=O)c2c(NC(=O)CN3CCCC(C(F)(F)F)C3)oc(C)c12 (stereo unspecified)	15.7
Cn1[nH]c(CNc2cccc(Cl)c2)nc1=O	-0.326
COc1cccc(CC(C)NC(=O)NCCc2cccnc2)c1 (stereo unspecified)	-8.55
CCNC(=O)NC1CN(Cc2ccccc2N(C)C)C[C@@H]1OC (stereo partly specified)	5.63
CCOc1ccccc1CSc1nnc(CC2CCS(=O)(=O)C2)n1C (stereo unspecified)	-11.4
Cc1cc(OCC(=O)N2CCCC(c3ccn[nH]3)C2)no1 (stereo unspecified)	-5.93
O=C1CC(C2CCCCC2)c2c(n(C3CCCC3)[nH]c2=O)N1 (stereo unspecified)	2.99
N#Cc1cccc(Cl)c1NCCCc1nc(=O)[nH][nH]1	-9.76
Cc1ccc(N2CCC3(CC2)COCCN(c2nccs2)C3)nn1	2.35
Cc1ncc(CN(C)CCO)c2cc(C(=O)c3ccc(Br)cc3)oc12	-15.5
Cc1ccc(N2Cc3cnn(C)c3C(COCC3CC3)C2)nn1 (stereo unspecified)	-4.86
CCn1nnc2c1C(COCCN(C)C)CN(Cc1ccco1)C2 (stereo unspecified)	11.5
Cc1nc(CN2CCc3cc(C(=O)O)c(N(C)C)nc3CC2)cs1	-5.8
CC(C)n1ccnc1Cn1ccc2ncccc2c1=O	-0.693
COCC1CN(C(=O)c2cccs2)Cc2nccn2C1 (stereo unspecified)	-8.64

Structure (SMILES)	cytotoxicity at 70.5 h [%]
CCOc1cc(C(=O)N2CCN(C)CC2)cc2occc12	3.95
CC(=O)c1ccc(N2CCN(C(=O)NC(C)c3ccc(C)o3)CC2)cc1 (stereo unspecified)	-3.78
CN(CCN1CCN(c2ccccc2)CC1)C(=O)Nc1ccccn1	17.7
Cc1nc(N)nc(C)c1CC(=O)NCc1ccc2nonc2c1	-9.8
Cc1oc(CNC(=O)Cc2cccc(OC(F)F)c2)cc1C(=O)O	-7.31
COc1cccc(NC(=O)Cn2cc(-c3ccccc3)ncc2=O)c1	-8.81
CCn1cc(CN2CCN(C(=O)c3cc(Br)cs3)CC2)c(C)n1	22.9
NC(=O)c1cnn2c1NCC(CNCCCOc1ccccc1F)C2 (stereo unspecified)	6.81
N#CC1(C(=O)N2CCN(Cc3cscn3)CC2)CCCCC1	-4.74
Cc1ccc(CN2CC[C@@H]3[C@@H](CO[C@H]3CN(C)C)C2)o1	-5.5
COc1cc(CNC(C)Cn2cccn2)cc(Cl)c1OC (stereo unspecified)	-4.38
c1ccc(COC[C@H]2CC[C@H]3[C@H](CCN3Cc3cccnc3)O2)nc1	9.23
CCn1cnnc1C1CCN(C(=O)c2ccc(C(=O)OC)s2)CC1	-10.6
O=S(=O)(C1CC1)N1CC[C@H](OCC2CC2)[C@@H]1Cc1ccncc1	-4.87
O=C(Cc1cccs1)N1CCOCC1c1ccccc1 (stereo unspecified)	15.2
Cc1nsc(NC2CCN(c3ccccc3OC(F)F)C2=O)n1 (stereo unspecified)	9.92
Cc1cnc(CN(C)C2CCN(CC(=O)Nc3nncs3)C2)o1 (stereo unspecified)	17.3
CC(C)Cn1cnnc1C1CCCN1C(=O)OC(C)(C)C (stereo unspecified)	-0.156
Cc1cccc(NC(=O)CCC(=O)NCC(=O)c2ccccc2F)c1	2.08
